Data reported in ChEMBL document CHEMBL1137838, “Synthesis and structure-activity relationships of andrographolide analogues as novel cytotoxic agents” (2004).

How the values were obtained:
Assay type in all cases: functional
U-251 = assay: Concentration causing 50% inhibition of cancer cell growth against human CNS U251 cell line
NCI-H522 = assay: Concentration causing 50% inhibition of cancer cell growth against human lung H522 cell line
A498 = assay: Concentration causing 50% inhibition of cancer cell growth against human renal A498 cell line
SW-620 = assay: Concentration causing 50% inhibition of cancer cell growth against human colon SW620 cell line
SK-OV-3 = assay: Concentration causing 50% inhibition of cancer cell growth against human ovarian SKOV3 cell line
DU-145 = assay: Concentration causing 50% inhibition of cancer cell growth against human prostate DU145 cell line
NCI/ADR-RES = assay: Concentration causing 50% inhibition of cancer cell growth against human breast MCF-7/ADR cell line

SMILES	IG50 (U-251) [µM]	IG50 (NCI-H522) [µM]	IG50 (A498) [µM]	IG50 (SW-620) [µM]	IG50 (SK-OV-3) [µM]	IG50 (DU-145) [µM]	IG50 (NCI/ADR-RES) [µM]
CCC(=O)OC[C@@]1(C)[C@H]2CC[C@@]3(CO3)[C@@H](C/C=C3/C(=O)OC[C@H]3OC(=O)/C=C/c3ccc4c(c3)OCO4)[C@]2(C)CC[C@H]1OC(=O)CC	35	3	6	65	0.3	4	20
CC(C)(C)OC(=O)NCC(=O)O[C@@H]1COC(=O)/C1=C/C[C@@H]1[C@@]2(CC[C@@H]3[C@](C)(CO)[C@H](O)CC[C@]31C)CO2	40	>100	5	40	6	20	7
C=C1CC[C@@H]2[C@](C)(CO)[C@H](O)CC[C@@]2(C)[C@@H]1C/C=C(/C(=O)O)[C@H](O)CO	>100	80	4	>100	>100	>100	30
CCC(=O)O[C@@H]1COC(=O)/C1=C/C[C@@H]1[C@@]2(CC[C@@H]3[C@](C)(CO)[C@H](OC(=O)CC)CC[C@]31C)CO2	35	40	40	7	3	20	30
CCC(=O)OC[C@@]1(C)[C@H]2CC[C@@]3(CO3)[C@@H](C/C=C3/C(=O)OC[C@H]3OC(=O)CC)[C@]2(C)CC[C@H]1OC(=O)CC	3	3	–	2	1.36	3	–
CC(=O)OC[C@@]1(C)[C@H]2CC[C@@]3(CO3)[C@@H](C/C=C3/C(=O)OC[C@H]3O)[C@]2(C)CC[C@H]1OC(C)=O	40	–	20	20	>100	–	30
CCC(=O)OC[C@@]1(C)[C@H]2CC[C@@]3(CO3)[C@@H](C/C=C3/C(=O)OC[C@H]3OC(=O)/C=C/c3ccccc3)[C@]2(C)CC[C@H]1OC(=O)CC	6	20	3	2.5	10	4	0.08
CC(=O)OC[C@@]1(C)[C@H]2CC[C@@H](C=O)[C@@H](C/C=C3/C(=O)OC[C@H]3OC(C)=O)[C@]2(C)CC[C@H]1OC(C)=O	62	34	–	32	3	12	–
CCC(=O)OC[C@@]1(C)[C@H]2CC[C@@]3(CO3)[C@@H](C/C=C3/C(=O)OC[C@H]3OC(=O)CNC(=O)OC(C)(C)C)[C@]2(C)CC[C@H]1OC(=O)CC	20	4	4	30	15	20	15
CCC(=O)OC[C@@]1(C)[C@H]2CC[C@@]3(CO3)[C@@H](C/C=C3/C(=O)OC[C@H]3OC(=O)/C=C/c3ccc(OC)c(OC)c3)[C@]2(C)CC[C@H]1OC(=O)CC	2	7.5	3.5	0.4	2.5	2.5	1.5
C=C1CC[C@@H]2[C@](C)(CO)[C@H](O)CC[C@@]2(C)[C@@H]1/C=C/C1=CCOC1=O	81	>100	–	>100	–	2	>100
C[C@]1(CO)[C@H]2CC[C@@]3(CO3)[C@@H](C/C=C3/C(=O)OC[C@H]3O)[C@]2(C)CC[C@H]1O	16	30	30	30	4	20	20
CC(=O)OC[C@@]1(C)[C@H]2CC[C@@]3(CO3)[C@@H](C/C=C3/C(=O)OC[C@H]3OC(=O)CNC(=O)OC(C)(C)C)[C@]2(C)CC[C@H]1OC(C)=O	4	4	20	3	8	7	4
C=C1CC[C@@H]2[C@](C)(CO)[C@H](O)CC[C@@]2(C)[C@@H]1CCC1C(=O)OC[C@H]1O (stereo partly drawn)	85	>100	–	>100	>100	2	–
CCC(=O)OC[C@@]1(C)[C@H]2CC[C@@]3(CO3)[C@@H](C/C=C3/C(=O)OC[C@H]3OC(=O)/C=C/c3ccc(OC)cc3)[C@]2(C)CC[C@H]1OC(=O)CC	3	4.8	3	0.6	2	2	3
CC(=O)OC[C@@]1(C)[C@H]2CC[C@@H](CO)[C@@H](C/C=C3/C(=O)OC[C@H]3OC(C)=O)[C@]2(C)CC[C@H]1OC(C)=O	19	19	–	7	3	2	–
CC(=O)O[C@@H]1CC[C@]2(C)[C@H](CC[C@@]3(CO3)[C@H]2C/C=C2/C(=O)OC[C@H]2O)[C@]1(C)CO	45	60	20	>100	50	50	20
CC(=O)O[C@@H]1COC(=O)/C1=C/C[C@@H]1[C@@]2(CC[C@@H]3[C@](C)(CO)[C@H](O)CC[C@]31C)CO2	50	25	7	20	5	25	20
CC(=O)O[C@@H]1COC(=O)/C1=C/C[C@@H]1[C@@]2(CC[C@@H]3[C@](C)(CO)[C@H](OC(C)=O)CC[C@]31C)CO2	30	30	6	55	2.5	6.5	20
CC(=O)OC[C@@]1(C)[C@H]2CCC3=COC(C4=CCOC4=O)C[C@H]3[C@]2(C)CC[C@H]1OC(C)=O (stereo partly drawn)	30	50	–	40	40	40	40
C[C@]1(CO)[C@H]2CC[C@@]3(CO3)[C@@H](C/C=C3/C(=O)OC[C@H]3OC(=O)/C=C/c3ccccc3)[C@]2(C)CC[C@H]1O	6	6	9	0.5	4	5.5	2
C=C1CC[C@@H]2[C@](C)(CO)[C@H](O)CC[C@@]2(C)[C@@H]1C/C=C1/C(=O)OC[C@H]1O [ANDROGRAPHOLIDE]	3	17	30	10	15	20	15
CC(=O)OC[C@@]1(C)[C@H]2CC[C@@]3(CO3)[C@@H](C/C=C3/C(=O)OC[C@H]3OC(C)=O)[C@]2(C)CC[C@H]1OC(C)=O	2.5	15	0.25	1	25	15	5
C=C1CC[C@@H]2[C@](C)(CO)[C@H](O)CC[C@@]2(C)[C@@H]1CCC1=CCOC1=O [DEOXYANDROGRAPHOLIDE]	>100	>100	–	54	0.18	5	–
